Patent US10723859B2, “Lignin valorization in ionic liquids and deep eutectic solvent via catalysis and biocatalysis” (University of Kentucky Research Foundation, priority 2017, dated 2020)
“Also recorded” adds a separate entry of the source.

Experiments:
Format in all cases: biochemical, Trametes versicolor
T. versicolor laccase [1] = experiment: Lignin model compound (GGE) depolymerization by laccase in AILs, HPLC; conditions: 2% [C2C1Im][OAc] or 1% [Ch][Lys], 40° C., O2 30 psi, 2 hours
Protocol: Appropriate concentrations of AIL, ABTS, laccase, and GGE were mixed. Sodium citrate buffer (1.0 M, pH 5.0) was added for a final reaction volume of 1 mL. Reactions were carried out in a batch reactor at 40° C. Pure O2 was flowed through the reactor for 1 minute. The release valve of the reactor was closed, pure O2 was flowed in at a pressure of 30 psi, and the reaction was allowed to proceed for an additional 2 hours. Product profiles were analyzed by HPLC using the method as described previously (Deng, Zhang et al. 2015). Water and acetonitrile (8:2 v/v) was used as a mobile phase. Mobile phase was flowed at 0.5 mL min^−1 for 30 minutes through an Ultimate 3000 HPLC system (Dionex Corporation, Sunnyvale, Calif., USA) equipped with ultraviolet (UV) detector. Separation was achieved through use of a Zorbax Eclipse XDB-C18 column (5 μm particle size, 150×4.6 mm i.d., Agilent Technologies, Santa Clara, Calif., USA) at 25° C. Elution profile of column was measured by UV absorbance at 280 nm.

T. versicolor laccase [2] = experiment: AIL inhibition: Michaelis-Menten and Lineweaver-Burke curves of laccase; conditions: from changes in Vmax and Km with AIL concentration; ABTS substrate, 0.30 μg laccase
Protocol: Michaelis-Menten curves were generated by mixing appropriate concentrations of AILs and ABTS with 0.30 μg laccase in 96-well plates. Sodium citrate buffer (1.0 M, pH 5.0) was added for a final well volume of 250 μL. ABTS oxidation was measured using the same method as the initial screening. Laccase activity (V) was measured as moles of ABTS oxidized per minute per gram of laccase (mol ABTS·min^−1·g^−1 lac.) and Km was measured in μmol ABTS. Activity was fit to the Michaelis-Menten curve, shown in equation 1. [formula] These curves were linearized using the Lineweaver-Burke method, resulting in equation 2. [formula] Equation 2 was used to solve for Km and Vmax of laccase in known concentrations of AILs.

T. versicolor laccase [3] = experiment: Biocompatibility screening of AILs with laccase (ABTS oxidation assay); conditions: for inhibitory effect on laccase (comparison among the 3 ILs): varied concentration of laccase and ILs
Protocol: All solutions used were adjusted to pH 5.0 prior to beginning experiments. Appropriate concentrations of laccase and AILs were mixed and added to clear, flat bottom 96-well Costar Assay Plates (Corning Inc.; Kenneburk, Me.). ABTS was added for a final concentration of 2 mM. Sodium citrate buffer (1.0 M, pH 5.0) was added for a final well volume of 250 μL. ABTS oxidation was measured for 5 minutes at 40° C. Absorbance readings were taken every 30 seconds at a wavelength of 420 nm using a SpectraMax M2 plate reader from Molecular Devices (Sunnyvale, Calif., USA). Plates were shaken for 5 seconds prior to initial reading and 3 seconds before each reading to ensure homogeneous well solutions.

SMILES	degradation of GGE by laccase in AIL (T. versicolor laccase [1]; with mediator ABTS)	degradation of GGE by laccase in AIL (T. versicolor laccase [1]; without ABTS, 10% [DEA][HSO4])	type of inhibition of laccase (T. versicolor laccase [2])	loss of laccase activity (T. versicolor laccase [3]; 2% AIL, ABTS oxidation, pH 5.0, 40° C.)	inhibitory effect on laccase (comparison among the 3 ILs) (T. versicolor laccase [3]; ABTS assay)	loss of laccase activity (T. versicolor laccase [3]; 2% IL, ABTS assay)	inhibitory effect on laccase (comparison among the 3 ILs) (T. versicolor laccase [3]; ABTS assay, acetate)	loss of laccase activity (T. versicolor laccase [3]; 10% IL, ABTS assay)
C[N+](C)(C)CCO.NCCCC[C@H](N)C(=O)[O-] [[Ch][Lys], cholinium lysinate]	able to break down GGE	not capable of breaking down GGE	mixed inhibition	> 50%	more inhibitory	–	–	–
CC(=O)[O-].CCn1cc[n+](C)c1 [[C2C1Im][OAc], 1-ethyl-3-methylimidazolium acetate]	able to break down GGE	not capable of breaking down GGE	mixed inhibition	–	–	significant loss of laccase activity	more inhibitory to laccase	–
CCNCC.O=S(=O)(O)O [[DEA][HSO4], diethyl ammonium hydrogen sulfate]	–	capable of degrading GGE	noncompetitive inhibition	–	most biocompatible; also recorded: did not impede the ability of laccase to oxidize ABTS	–	–	losing little of its activity; also recorded: negligible to modest loss of laccase activity
